The text below walks through data of patent US10239832B2, “N-(1-hydroxy-3-(pyrrolidinyl)propan-2-yl)pyrrolidine-3-carboxamide derivatives as glucosylceramide synthase inhibitors” (BIOMARIN PHARMACEUTICAL INC., priority 2013, dated 2019).

The term IC50 denotes the concentration that gives 50% inhibition.

For the experiment, the target named is T1, GCS (Canis lupus familiaris, UniProt A0A8I3MXG6).
T1 construct: endogenous in cells; host or cells: MDCK (Madin-Darby canine kidney) cells, whole-cell lysate
T1 sequence (A0A8I3MXG6 1-394): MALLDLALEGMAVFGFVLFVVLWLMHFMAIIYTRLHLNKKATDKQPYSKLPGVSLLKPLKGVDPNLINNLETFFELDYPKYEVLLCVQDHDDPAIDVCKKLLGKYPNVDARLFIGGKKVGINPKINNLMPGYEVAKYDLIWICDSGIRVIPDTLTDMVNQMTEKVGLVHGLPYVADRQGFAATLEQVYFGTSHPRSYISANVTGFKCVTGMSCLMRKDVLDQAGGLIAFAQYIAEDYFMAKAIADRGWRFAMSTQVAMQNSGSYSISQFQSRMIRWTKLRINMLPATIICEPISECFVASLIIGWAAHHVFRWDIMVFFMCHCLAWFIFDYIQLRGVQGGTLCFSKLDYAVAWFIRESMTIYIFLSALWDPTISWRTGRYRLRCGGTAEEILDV
Put plainly: GCS enzymatic assay (MDCK cell lysate, NBD-ceramide to glucosylceramide, LC/MS). It counts as biochemical, canine. The settings on record: Table 2, the table does not say which of the assays; for IC50: class symbols A, B, C, read-out: Data Range (IC50 values); for Data Range (% inhibition): class symbols D, E, F, NA (not active). On the procedure:
This assay was modified based on the study by Larsen et al. (J. Lipid Res. 2011, 53, 282). Madin-Darby canine kidney (MDCK) cell lysate was prepared using M-PER Mammalian Protein Extraction Reagent (Thermal Scientific) in the presence of a protease inhibitor cocktail (Roche). Protein concentration was determined using BCA assay kit (Pierce). […] 0.1% DMSO was used as mock treatment or control. The reaction was terminated by adding 100 μL acetonitrile solution and subjected to LC/MS analysis.
The quantitative analysis of NBD-Ceramide and glucosylceramide was performed on a Shimadzu ultra-fast liquid chromatography (Shimadzu, Japan) coupled with API 4000 triple quadrupole mass spectrometer (Applied Biosystems, Concord, Ontario, Canada). Sample separation was conducted on a Waters Xbridge™ BEH130 C18, 100 mm×4.6 mm i.d, 3.5 μm (Milford, Mass., USA). The mobile phase consisted of water and acetonitrile supplemented with 0.1% formic acid (v/v). The flow rate was 1.0 mL/min. The initial mobile phase was 20% acetonitrile and was ramped in a linear fashion to 50% acetonitrile in 0.4 min. From 0.4 to 1.5 min, the gradient was ramped to 98% acetonitrile, and then was held at […] until 8.0 min. Acetonitrile was reset to 20% in 1.5 min, and maintained until 10.0 min. The total run time was 10.0 min. The MS/MS detection was performed in ESI positive mode. The mass transition of NBD-Ceramide was m/z 576.36→558.40 under the collision energy of 15 V, and the mass transition of glucosylceramide was m/z 738.35→558.40 under 21V collision energy. The cell lysate was diluted with equal volume of acetonitrile. Aliquots of 50 μL diluted samples were added to 1.5 mL tubes, and 100 μL of acetonitrile containing internal standard (100 ng/mL tolbutamide) were added for protein precipitation. The mixture were vortexed and then centrifuged at 13000 rpm for 10 min. 70 μL of supernatant were mixed with 140 μL of H2O and the final solution were injected for LC/MS/MS analysis and IC50's and/or percent inhibitions calculated.

As to `O=C(N[C@H](CN1CCCC1)[C@H](O)c1ccc(OC2CC2)c(Cl)c1)C1CCN(c2ccc(Cl)cc2)C1` (stereo in doubt) [Compound 3, (S)-N-((1R,2R)-1-(3-chloro-4-cyclopropoxyphenyl)-1-hydroxy-3-(pyrrolidin-1-yl)propan-2-yl)-1-(4-chlorophenyl)pyrrolidine-3-carboxamide], the IC50 lay in the range of 1 to 30 nM.

Turning to `O=C(N[C@H](CN1CCCC1)[C@H](O)c1ccc(OC2CC2)c(Cl)c1)C1CCN(c2ccc(Cl)cc2)C1` (stereo in doubt) [Compound 3B, (R)-N-((1R,2R)-1-(3-chloro-4-cyclopropoxyphenyl)-1-hydroxy-3-(pyrrolidin-1-yl)propan-2-yl)-1-(4-chlorophenyl)pyrrolidine-3-carboxamide], the “Data Range (% inhibition)” value is on record as “F (1-49% (or less than 50%))”.

Turning to `O=C(N[C@H](CN1CCCC1)[C@H](O)c1ccc2c(c1)OCCO2)C1CCN(c2ccc(Cl)c(Cl)c2)C1` (stereo in doubt) [Compound 8, (R)-1-(3,4-dichlorophenyl)-N-((1R,2R)-1-(2,3-dihydrobenzo[b][1,4]dioxin-6-yl)-1-hydroxy-3-(pyrrolidin-1-yl)propan-2-yl)pyrrolidine-3-carboxamide], the “Data Range (% inhibition)” value was “D (75-100%)”.

`O=C(N[C@H](CN1CCCC1)[C@H](O)c1ccc2c(c1)OCCO2)C1CCN(c2ccc(Cl)c(Cl)c2)C1` (stereo in doubt) [Compound 8D, (S)-1-(3,4-dichlorophenyl)-N-((1R,2R)-1-(2,3-dihydrobenzo[b][1,4]dioxin-6-yl)-1-hydroxy-3-(pyrrolidin-1-yl)propan-2-yl)pyrrolidine-3-carboxamide]: the “Data Range (% inhibition)” value is “E (50-74% (or less than 75%))”.

`O=C(N[C@H](CN1CCCC1)[C@H](O)c1ccc2c(c1)OCCO2)C1CCN(c2ccc(Cl)cc2Cl)C1` (stereo in doubt) [Compound 12, (R)-1-(2,4-dichlorophenyl)-N-((1R,2R)-1-(2,3-dihydrobenzo[b][1,4]dioxin-6-yl)-1-hydroxy-3-(pyrrolidin-1-yl)propan-2-yl)pyrrolidine-3-carboxamide]: the IC50 is 1 to 30 nM.

With `O=C(N[C@H](CN1CCCC1)[C@H](O)c1ccc2c(c1)OCCO2)C1CCN(c2ccc(Cl)cc2Cl)C1` (stereo in doubt) [Compound 12D, (S)-1-(2,4-dichlorophenyl)-N-((1R,2R)-1-(2,3-dihydrobenzo[b][1,4]dioxin-6-yl)-1-hydroxy-3-(pyrrolidin-1-yl)propan-2-yl)pyrrolidine-3-carboxamide], the “Data Range (% inhibition)” value is recorded as “F (1-49% (or less than 50%))”.

As for `O=C(N[C@H](CN1CCCC1)[C@H](O)c1ccc2c(c1)OCCO2)C1CCN(c2ccc3cc(F)ccc3c2)C1` (stereo in doubt) [Compound 14, (S)-N-((1R,2R)-1-(2,3-dihydrobenzo[b][1,4]dioxin-6-yl)-1-hydroxy-3-(pyrrolidin-1-yl)propan-2-yl)-1-(6-fluoronaphthalen-2-yl)pyrrolidine-3-carboxamide], the IC50 was in the range of 1 to 30 nM.

On to `O=C(N[C@H](CN1CCCC1)[C@H](O)c1ccc2c(c1)OCCO2)C1CCN(c2ccc3cc(F)ccc3c2)C1` (stereo in doubt) [Compound 14D, (R)-N-((1R,2R)-1-(2,3-dihydrobenzo[b][1,4]dioxin-6-yl)-1-hydroxy-3-(pyrrolidin-1-yl)propan-2-yl)-1-(6-fluoronaphthalen-2-yl)pyrrolidine-3-carboxamide], for which the “Data Range (% inhibition)” value is recorded as “F (1-49% (or less than 50%))”.

For `CC(C)Oc1ccc(C(O)[C@@H](CN2CCCC2)NC(=O)[C@H]2CCN(c3ccc(F)cc3)C2)cn1` (stereo in doubt) [Compound 31B, (S)-1-(4-fluorophenyl)-N-((1S,2R)-1-hydroxy-1-(6-isopropoxypyridin-3-yl)-3-(pyrrolidin-1-yl)propan-2-yl)pyrrolidine-3-carboxamide], the “Data Range (% inhibition)” value is reported as “E (50-74% (or less than 75%))”.

For `O=C(NC(CN1CCCC1)[C@H](O)c1cc(F)c2c(c1)OCCO2)[C@H]1CCN(c2ccc3ccccc3n2)C1` (stereo in doubt) [Compound 68C, (S)-N-((1R,2S)-1-(8-fluoro-2,3-dihydrobenzo[b][1,4]dioxin-6-yl)-1-hydroxy-3-(pyrrolidin-1-yl)propan-2-yl)-1-(quinolin-2-yl)pyrrolidine-3-carboxamide], the “Data Range (% inhibition)” value is given as “F (1-49% (or less than 50%))”.

For the compound `N#Cc1ccc(N2CCC(C(=O)N[C@H](CN3CCCC3)C(O)c3ccc(OC4CC4)c(Cl)c3)C2)cc1` (stereo in doubt) [Compound 152C, (R)-N-((1S,2R)-1-(3-chloro-4-cyclopropoxyphenyl)-1-hydroxy-3-(pyrrolidin-1-yl)propan-2-yl)-1-(4-cyanophenyl)pyrrolidine-3-carboxamide], the IC50 fell in the range of 30 to 100 nM.

In the case of `O=C(N[C@H](CN1CCCC1)[C@H](O)c1ccc2c(c1)OCCO2)[C@@H]1CCN(c2ccc(Cl)cc2)C1` [Compound 1, (R)-1-(4-chlorophenyl)-N-((1R,2R)-1-(2,3-dihydrobenzo[b][1,4]dioxin-6-yl)-1-hydroxy-3-(pyrrolidin-1-yl)propan-2-yl)pyrrolidine-3-carboxamide], the 50% inhibitory concentration (IC50) was in the range of 1 to 30 nM.

Consider `O=C(N[C@H](CN1CCCC1)[C@H](O)c1ccc2c(c1)OCCO2)C1CCN(c2ccc(Cl)cc2)C1` (stereo partly drawn) [Compound 1C, 1-(4-chlorophenyl)-N-((1R,2R)-1-(2,3-dihydrobenzo[b][1,4]dioxin-6-yl)-1-hydroxy-3-(pyrrolidin-1-yl)propan-2-yl)pyrrolidine-3-carboxamide], for which the IC50 was 1 to 30 nM.

Regarding `O=C(N[C@H](CN1CCCC1)[C@H](O)c1ccc2c(c1)OCCO2)[C@H]1CCN(c2ccc(Cl)cc2)C1` [Compound 1D, (S)-1-(4-chlorophenyl)-N-((1R,2R)-1-(2,3-dihydrobenzo[b][1,4]dioxin-6-yl)-1-hydroxy-3-(pyrrolidin-1-yl)propan-2-yl)pyrrolidine-3-carboxamide], the IC50 lay within 30 to 100 nM.

Consider `O=C(N[C@H](CN1CCCC1)[C@H](O)c1cc(F)c2c(c1)OCCO2)[C@@H]1CCN(c2ccc(Cl)cc2)C1` [Compound 2, (R)-1-(4-chlorophenyl)-N-((1R,2R)-1-(8-fluoro-2,3-dihydrobenzo[b][1,4]dioxin-6-yl)-1-hydroxy-3-(pyrrolidin-1-yl)propan-2-yl)pyrrolidine-3-carboxamide], for which the IC50 lay in the range of 1 to 30 nM.

Regarding `O=C(N[C@H](CN1CCCC1)[C@H](O)c1cc(F)c2c(c1)OCCO2)C1CCN(c2ccc(Cl)cc2)C1` (stereo partly drawn) [Compound 2A, 1-(4-chlorophenyl)-N-((1R,2R)-1-(8-fluoro-2,3-dihydrobenzo[b][1,4]dioxin-6-yl)-1-hydroxy-3-(pyrrolidin-1-yl)propan-2-yl)pyrrolidine-3-carboxamide], the IC50 lay within 1 to 30 nM.

For `O=C(N[C@H](CN1CCCC1)[C@H](O)c1cc(F)c2c(c1)OCCO2)[C@H]1CCN(c2ccc(Cl)cc2)C1` [Compound 2B, (S)-1-(4-chlorophenyl)-N-((1R,2R)-1-(8-fluoro-2,3-dihydrobenzo[b][1,4]dioxin-6-yl)-1-hydroxy-3-(pyrrolidin-1-yl)propan-2-yl)pyrrolidine-3-carboxamide], the “Data Range (% inhibition)” value was “F (1-49% (or less than 50%))”.

In the case of `O=C(N[C@H](CN1CCCC1)[C@H](O)c1ccc(OC2CC2)c(Cl)c1)C1CCN(c2ccc(Cl)cc2)C1` (stereo partly drawn) [Compound 3A, N-((1R,2R)-1-(3-chloro-4-cyclopropoxyphenyl)-1-hydroxy-3-(pyrrolidin-1-yl)propan-2-yl)-1-(4-chlorophenyl)pyrrolidine-3-carboxamide], the IC50 fell in the range of 30 to 100 nM.

For `O=C(N[C@H](CN1CCCC1)[C@H](O)c1ccc2c(c1)OCCO2)[C@@H]1CCN(CC2(O)CCOCC2)C1` [Compound 5, (R)-N-((1R,2R)-1-(2,3-dihydrobenzo[b][1,4]dioxin-6-yl)-1-hydroxy-3-(pyrrolidin-1-yl)propan-2-yl)-1-((4-hydroxytetrahydro-2H-pyran-4-yl)methyl)pyrrolidine-3-carboxamide], the “Data Range (% inhibition)” value was “F (1-49% (or less than 50%))”.
